The text below walks through data of patent US20050113318A1, “Combination of dehydroepiandrosterone or dehydroepiandrosterone-sulfate with a beta-agonist bronchodilator for treatment of asthma or chronic obstructive pulmonary disease” (priority 2003, published 2005).

A short description of series [1]: Particle size of DHEA-S powders (laser diffraction, light microscope). The series is classed as physicochemical. Conditions: for mean particle size: spray dried, two batches. How it is done: Approximately 1 g sample was passed through the jet mill, once, and approximately 2 g sample were passed through the jet mill twice. […] The resulting solution was sonicated for 3 minutes and appeared fully dispersed. The dispersed solutions were tested on a Malvern Mastersizer X with a small volume sampler (SVS) attachment. One sample of dispersed material was tested 5 times. The median particle size or D (v, 0.5) of unmilled material was 52.56 μm and the % RSD (relative standard deviation) was 7.61 for the 5 values. The D (v, 0.5) for a single pass through the jet mill was 3.90 μm and the % RSD was 1.27, and the D (v, 0.5) from a double pass through the jet mill 3.25 μm and the % RSD was 3.10.
The solution was spray-dried with a B-191 Mini Spray-Drier (Buchi, Flawil, Switzerland) with an inlet temperature of 55° C., outlet temperature of 40° C., at 100% aspirator, at 10% pump, nitrogen flow at 40 mbar and spray flow at 600 units. The spray-dried product was suspended in hexane and Span85 surfactant added to reduce agglomeration. The dispersions were sonicated with cooling for 3-5 minutes for complete dispersion and the dispersed solutions tested on a Malvern Mastersizer X with a Small Volume Sampler (SVS) attachment. […] Visual examination by light microscope of the dispersions of each batch confirmed that spray drying produced small respirable size particles. The mean particle size was 2.4 μm and 2.0 μm for each batch, respectively.
Surface area is determined using five point BET analyses are performed with nitrogen as the adsorbing gas (P/Po=0.05 to 0.30) using a Micromeritics TriStar surface area analyzer. Particle size distributions are measured by laser diffraction using a Micromeritics Saturn Digisizer where the particles are suspended in mineral oil th sodium dioctyl sodium sulfosuccinate as a dispersing agent. Drug substance water content is measured by Karl Fischer titration (Schott Titroline KF). Pure water is used as the standard and all relative standard deviations for triplicates are less than 1%. Powder is added directly to the titration media.

Series [2] is described as follows: Fine particle fraction, single-dose Acu-Breathe inhaler into Andersen impactor. Conditions: 30 L/min, IDL data, FIG. 1; result set to zero. The class given is physicochemical. On the procedure:
These blisters are actuated into the Andersen 8-stage cascade impactor at flow rates ranging from 30 to 75 L/min with a glass twin-impinger throat. Stages 1-5 of the Andersen impactor are rinsed together to obtain an estimate of the fine particle fraction. Pooling the drug collected from multiple stages into one assay make the method much more sensitive. […] Using a carrier with a larger particle size typically improves the aerosol properties of micronized drug substances.
Approximately 25 mg of this powder is filled and sealed in foil blisters and aerosolized using the single-dose device at 60 L/min. The aerosol results for this preliminary powder blend are satisfactory for a respiratory drug delivery system. […] This diameter is smaller than the median diameter measured for micronized DHEA-S.dihydrate by laser diffraction. Irregularly shaped particles can behave aerodynamically as smaller particles since their longest dimension tends to align with the air flow field. Therefore, it is common to see a difference between the two methods. Diffraction measurements are a quality control test for the input material while cascade impaction is a quality control test for the finished product.

Structures are written as SMILES. Where “and” joins values, the source holds several entries; their conditions need not be identical. Equal values may be shown once.

Turning to `C[C@]12CC[C@H](OS(=O)(=O)[O-])CC1=CC[C@@H]1[C@@H]2CC[C@]2(C)C(=O)CC[C@@H]12.[Na+]` [Anhydrous DHEA-S], the “median particle size D (v, 0.5)” value is 3.25 μm in series [1] (double pass through the jet mill); 3.90 μm in series [1] (single pass through the jet mill); 52.56 μm in series [1] (unmilled material, Malvern Mastersizer X). The mean particle size is 5.07±0.70 μm and 6.66±0.91 μm in series [1] (Malvern Mastersizer X); 2.4 μm and 2.0 μm in series [1] (visual examination by light microscope). For the same compound, the fine particle fraction entry in series [2] is on record as “no detectable mass entered the impactor”.
